According to patent US9884863B2, “STAT3 inhibitor” (Board of Regents, The University of Texas System, priority 2013, dated 2018):
Where two headings read alike, the source gives them in different places.

Tests used:
AsPC1 = test: MTS cell proliferation assay, AsPC1; type: cell-based, human; conditions: Homo sapiens, ASPC1, 72 h
Experimental: (§1) Cancer cells (breast cancer cell lines MCF-7, MDA-MB-361, SKBR3 and MDA-MB-231, pancreatic cancer cell lines AsPC-1. BxPC3 and Panc-1) were seeded in 96-well plates at a density of 1000-2000 cells/well and treated with DMSO, 0.01, 0.1, 1, 5, 10, and […] of STAT3 individual inhibitors for 72 hrs. Proliferation was measured by treating cells with the 3-(4,5-dimethylthiazol-2-yl)-5-(3-carboxymethoxyphenyl)-2-(4-sulfophenyl)-2H-tetrazolium) (MTS) in a CellTiter 96t AQueous Non-Radioactive Cell Proliferation Assay kit from Promega, Madison, Wis., USA). Absorbance of all wells was determined by measuring OD at 550 nm after 1 hr incubation at 37° C. on a 96-well iMark™ Microplate Absorbance Reader (BioRad, Hercules, Calif.). Each individual compound was tested in quadruplicate wells for each concentration, and the results were reported as mean absorption±s.e.
(§2) In Vitro Determination of Effects of Synthesized Compounds on Cancer Cell Proliferation. Cancer cells (breast cancer cell lines MCF-7 and MDA-MB-231, pancreatic cancer cell lines AsPC-1 and Panc-1) were seeded in 96-well plates at a density of 2×10^3 cells/well and treated with DMSO, 0.01, 0.1, 1, 5, 10, and 100 μM of individual STAT3 inhibitors for 72 h. Proliferation was measured by treating cells with the 3-(4,5-dimethylthiazol-2-yl)-5-(3-carboxymethoxyphenyl)-2-(4-sulfophenyl)-2H-tetrazolium) (MTS) in a CellTiter 96t Aqueous Non-Radioactive Cell Proliferation Assay kit (Promega, Madison, Wis., USA). Absorbance of all wells was determined by measuring OD at 550 nm after 1 h incubation at 37° C. on a 96-well iMark™ Microplate Absorbance Reader (BioRad, Hercules, Calif.). Each individual compound was tested in quadruplicate wells for each concentration.

[1] = system: STAT3 promoter activity in MDA-MB-231 cells; test: Transient transfection and dual luciferase reporter assay (pSTAT3-Luc); type: cell-based, human; conditions: Homo sapiens, MDA-MB-231, read-out: inhibition of STAT3 promoter activity at 5 μM; 24 h, compared with control; Example 4 numbering
Experimental: MDA-MB-231 cells were pre-treated with niclosamide or 11 at different concentrations for 24 h. The STAT3 promoter activity in MDA-MB-231 cells was determined after transient transfecting with pSTAT3-Luc vector.
Transient Transfection and Dual Luciferase Reporter Assays. MBA-MB-231 cells were seeded in 24-well plate at a density of 5×10^4 cells/well in RPMI-1640 medium containing 10% FBS and 1% penicillin-streptomycin. Transient transfections were performed 4 h after plating, using the method described previously (Rees, D. C. et al., 2004; Shen, Q. et al., 2008). Total amount of DNA for transfections was 0.5 μg/well, including pSTAT3-Luc (95%, obtained from Panomics, Cat# LR0077) and internal control vector renilla (5%, from Promega, Madison, Wis., USA). 5 h after transfection, the cells were treated with compound […] for 24 h, then reporter activity was evaluated using dual luciferase reporter assay kit (Promega, Madison, Wis., USA) on an Omega™ Microplate Luminometer (BMG LABTECH Inc., NC, USA). Relative luciferase units were the ratio of the absolute activity of firefly luciferase to that of renilla luciferase. Experiments were conducted with triplicates and results are representatives of at least 3 independent experiments.

Panc-1 = test: MTS cell proliferation assay, Panc-1; type: cell-based, human; conditions: Homo sapiens, PANC-1, 72 h
Experimental: as §1, §2

MCF-7 = test: MTS cell proliferation assay, MCF-7; type: cell-based, human; conditions: Homo sapiens, MCF7, 72 h
Summary of the method: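 MCF-7 human breast cancer cells were exposed to test compounds at a range of concentrations, then proliferation was measured with the MTS reagent from Promega's CellTiter 96 AQueous Non-Radioactive Cell Proliferation Assay kit. After 1 hr at 37° C., OD at 550 nm was read on a 96-well iMark Microplate Absorbance Reader, with quadruplicate wells per concentration.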

MDA-MB-231 = test: MTS cell proliferation assay, MDA-MB-231; type: cell-based, human; conditions: Homo sapiens, MDA-MB-231, 72 h
Summary of the method: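 Cells are exposed to DMSO or STAT3 inhibitors at 0.01-100 μM for 72 h, or at 1, 5 and 10 μM. Proliferation is read by MTS absorbance at 550 or 560 nm after 1 h at 37 °C. Each concentration is run in quadruplicate wells.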

[2] = type: in vivo; conditions: mouse, in vivo, 150 mg/kg
Experimental: Female nude mice at 4 to 6 wk of age were obtained from MDACC ERO facility. The mice were maintained in a barrier unit with 12 hours light-dark switch room and all materials were autoclaved. Freshly harvested MDA-MB-231 cells (2.5×10^6 cells per mouse, resuspended in 100 μl PBS) were injected into the 3rd mammary fat pad of the mice, and then mice were randomly assigned into control and treatment groups (≧6 mice per group). Treatment started when the xenograft mammary tumors reaches a volume of 200 mm^3. […] Mice were monitored daily for general health conditions (body weight, fur coat condition and posture) and toxicity (hair loss, skin rash, abdominal distension). […] Tumor volume was calculated as V=W^2×L/2, where L=longer diameter (mm) and W=width of short diameter (mm). […]
Female nude mice were obtained from MDACC and were used for orthotopic tumor studies at 4 to 6 weeks of age. […] Body weights and tumors volume were measured daily and tumor volume was calculated according to the formula V=0.5×L×W^2, where L=length (mm) and W=width (mm).
Twenty-two female nude mice (8 wks of age) were obtained from MDACC ERC Center. […] Body weights and tumors volume were measured daily and tumor volume calculated using the formula V=0.5×L×W^2, where L=length (mm) and W=width (mm) of xenograft tumors. Signs of toxicity were recorded individually. […]

[3] = system: STAT family, STAT3-dependent genes and JAKs in MDA-MB-468 cells; test: Western blot analysis, MDA-MB-468 cells; type: cell-based, human
[4] = system: STAT family, STAT3-dependent genes and JAKs in MDA-MB-231 cells; test: Western blot analysis, MDA-MB-231 cells; type: cell-based, human
Experimental: Blocking STAT3 signaling in many different tumor cells leads to induce growth arrest and apoptosis (Turkson, J. et al., 2000; Bromberg, J., 2002; Zhang, X. et al., 2012).
Western Blot Analysis. Protein levels were determined by Western blot using the previously described methods (Shen, Q. et al., 2008). Total cell lysates were prepared from MDA-MB-231 cells. Protein concentrations were measured using the BCA Protein Assay Reagent (Pierce, Rockford, Ill., USA). Equal amounts of total cellular protein extract (40 μg) were resuspended in denaturing sample loading buffer (0.5 M Tris-HCl, pH 6.8, 10% SDS, 0.1% bromophenol blue, and 20% glycerol), separated by electrophoresis on a 10% polyacrylamide SDS-PAGE gel and then electrophoretically transferred to a nitrocellulose membrane (Thermo Scientific, Ill., USA) at 100 Volts for 1 h at 4° C. The membrane was then incubated in a blocking solution containing 5% non-fat milk and 1% Tween 20 in TBS for 1 h. The membrane was then incubated with antibodies specific for: phospho-STAT3-pY705 (1:3000, Epitomics, #2236-1), STAT3 (1:2000, Cell Signaling, #4904), Caspase-3-cleaved (1:2000, Epitomics, #1476-1), Cyclin D1 (1:10000, Epitomics, #2261-1) and β-actin (1:10000, Sigma, clone AC-15). An anti-rabbit or anti-mouse secondary antibody (Amersham, Piscataway, N.J.) was used at 1:4000 dilution. The Western blotted bands were visualized using ECL procedure according to the manufacturer's instructions (Amersham).

MDA-MB-231 cells = test: Apoptosis assay (annexin V, flow cytometry); type: cell-based, human; conditions: MDA-MB-231
Experimental: Cell Cycle Assay and Apoptosis Assay: Cell cycle and apoptosis kits (#MCH100106 and #MCH100105, Millipore, Mass.) were used. […] 24 and 48 h after drug treatment, both adherent and floating cells were collected, washed once with PBS and fixed in cold ethanol for at least 4 h before cell cycle analysis. The fixed cells were then washed twice with PBS and resuspended in 200 μL cell cycle detection reagent, incubated for 30 minutes in dark at room temperature. Cell cycle distribution was measured by the Muse Cell Analyzer with Muse™ Cell Cycle. Similarly, MDA-MB-231 cells with the same treatments were prepared for apoptosis assay. After washing with PBS, resuspended cells were incubated with 100 μL PBS containing 1% BSA and 100 μL Annexin V and dead cell detection reagent in dark for 20 minutes at room temperature. Apoptosis was measured immediately using the Muse Cell Analyzer with the Muse™ Apoptosis Program.

[5] = system: MDA-MB-231 and MDA-MB-468 cells; test: Colony formation assay; type: cell-based, human; conditions: 15 days, starting at 0.625 μM
Experimental: Colony Formation Assay: MDA-MB-468 and MDA-MB-231 cells were seeded in 6-well plates with a density of 800-3000 cells/well, respectively. […] The culture media with the compounds were changed every 72 h. After two weeks, the wells were washed twice with PBS buffer and 2 mL of 0.01% crystal violet staining buffer was added and incubated for 10 min. The wells were then washed with PBS for 5 min for three times, and allowed to dry. Photographs were then taken and the density of the entire culture well area was digitally measured using the GelCount™ instrument (Oxford Optronix, UK). Experiments were performed in triplicate and the density data were analyzed with one-way ANOVA using GraphPad Prizm 6 software. Error bars represent standard deviation.

[6] = system: pSTAT3 nuclear translocation in MDA-MB-231 cells; test: IL-6 induction of STAT3 phosphorylation and nuclear translocation; type: cell-based, human; conditions: treatment for 6 h, IL-6 1 h
Experimental: IL-6 Induction of STAT3 Phosphorylation and Nuclear Translocation: A total of 5×10^4 MDA-MB-231 cells were seeded into each well of the chamber slides (#154526, Thermo, N.Y.) and cultured overnight. Cells were starved up to 24 h prior to the designated drug treatment. […] After stimulation with IL-6 (50 ng/mL) for 1 h, the culture media were aspirated and followed by DPBS (Gibco, Auckland, NZ) wash twice. Then cells were fixed with 4% paraformaldehyde for 10 min, followed by permeabilization using 100% methanol, blocking buffer for 1 h at room temperature, and incubation with primary antibodies at 4° C. overnight. After incubation with secondary antibody for 1 h, slides were stained with DAPI (Invitrogen, CA) for 5 min, and then anti-fade mounting media added to each chamber. Cells were then analyzed under immunofluorescence microscope with laser-scanning confocal imaging system (Nikon TS100F).

[7] = system: STAT3 and pSTAT3 in MDA-MB-231 xenograft tumors; test: IHC and Western blot of xenograft tumors; type: in vivo, mice
From the text: Immunohistochemistry (IHC): Paraffin blocks of the collected tissue were sectioned into 4 μm thickness and stained with H&E as a reference. All slides were subjected to phospho-STAT3 (Y705) IHC with ABC staining method. Rabbit or mouse IgG ABC kit was purchased from Vector Laboratories (Burlingame, Calif., USA) and ABC staining reagents were purchased from Sigma Aldrich (Louis, Mo., USA). PBS was used instead of primary antibody as a negative control.

[8] = system: STAT3 and pSTAT3 in MDA-MB-453 and BT474 cells; test: Transient transfection of STAT3 expression vector and Western blot; type: cell-based, human; conditions: 10 μM, 12 h
Experimental: Transient Transfection of STAT3 Expression Vector: Transient transfection was conducted using Fugene HD reagent (Invitrogen, N.Y., USA) per manufacturer's instructions. Briefly, MDA-MB-453 and BT474 cells were seeded in 100 mm^2 culture dishes and incubated overnight. Culture medium was changed to FBS free media 1 h prior to transfection, and 15 μg STAT3C over-expression vector (#24983, Addgene, Mass., USA), 45 μL Fugene HD together with 879 μL opti-MEM (Invitrogen, N.Y.) was added into each dish. Eight hours after transfection, the media was removed and changed to regular media containing 10% FBS. […] After 12 h treatment, total cell lysates were collected and proceeded to Western blot analysis.

[9] = system: MDA-MB-231 xenograft tumors; test: MDA-MB-231 xenograft tumor growth in nude mice; type: in vivo; conditions: oral gavage daily for 14 days
STAT3 = STAT3 (Homo sapiens, UniProt P40763); conditions: Schust et al. 2006; read-out: IC50, binding to STAT3; cited from earlier work
Sequence of STAT3 (P40763 whole entry, species assumed): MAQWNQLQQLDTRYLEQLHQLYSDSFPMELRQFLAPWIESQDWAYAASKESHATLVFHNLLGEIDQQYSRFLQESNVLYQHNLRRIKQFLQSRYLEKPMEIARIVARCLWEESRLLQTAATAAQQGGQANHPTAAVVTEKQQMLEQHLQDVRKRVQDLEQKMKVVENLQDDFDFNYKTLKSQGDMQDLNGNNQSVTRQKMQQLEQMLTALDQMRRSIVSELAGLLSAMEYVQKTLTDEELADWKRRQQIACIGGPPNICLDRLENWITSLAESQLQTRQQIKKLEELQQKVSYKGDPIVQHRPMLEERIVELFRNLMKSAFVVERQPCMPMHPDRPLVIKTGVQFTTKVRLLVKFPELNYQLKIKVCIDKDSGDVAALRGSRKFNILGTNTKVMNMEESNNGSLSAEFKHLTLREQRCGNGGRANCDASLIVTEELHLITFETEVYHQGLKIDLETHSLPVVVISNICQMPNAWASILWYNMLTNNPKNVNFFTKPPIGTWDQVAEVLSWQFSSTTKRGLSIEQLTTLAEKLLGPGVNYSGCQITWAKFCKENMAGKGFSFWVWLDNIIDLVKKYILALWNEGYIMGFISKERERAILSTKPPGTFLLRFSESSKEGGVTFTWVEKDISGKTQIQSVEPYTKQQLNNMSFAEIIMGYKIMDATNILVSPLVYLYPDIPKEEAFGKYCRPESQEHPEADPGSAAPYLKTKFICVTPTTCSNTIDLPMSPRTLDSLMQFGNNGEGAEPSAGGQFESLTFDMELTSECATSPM

O=C(Nc1ccc2c(c1)S(=O)(=O)C=C2)c1cc(-c2ccccc2)nc2ccccc12 [Compound 5]
IC50 (AsPC1; read-out: IC50 AsPC1 (Table 4)): 1250 nM
IC50 (AsPC1; read-out: IC50 AsPC1 (Table 5)): 1250 nM
inhibition at 5 µM [1]: ~65%
IC50 (Panc-1; read-out: IC50 Panc-1 (Table 4)): 260 nM
IC50 (Panc-1; read-out: IC50 Panc-1 (Table 5)): 260 nM
IC50 (MCF-7; read-out: IC50 MCF-7 (Table 4)): 100 nM
IC50 (MCF-7; read-out: IC50 MCF-7 (Table 5)): 100 nM
IC50 (MDA-MB-231; read-out: IC50 MDA-MB-231 (Table 4)): 290 nM
IC50 (MDA-MB-231; read-out: IC50 MDA-MB-231 (Table 5)): 290 nM
signs of toxicity at 150 mg/kg [2]: did not show significant signs of toxicity

NCCOc1ccc(Cl)cc1C(=O)Nc1ccc([N+](=O)[O-])cc1Cl [HJC0152]
JAK3 ([3]; MDA-MB-468): minimal alterations
STAT1 ([3]; MDA-MB-468): minimal changes
cleaved PARP1 ([3]; MDA-MB-468): induced from 6 h
JAK2 and pJAK2 ([3]; MDA-MB-468, 12 h, recovered at 24 h): transient down-regulation
JAK1 protein ([3]; MDA-MB-468, 12 h and 24 h): decreased level
Bcl-2 and cyclin D1 ([3]; MDA-MB-468, from 6 h): decreased level
pSTAT1 at Y701 and S727 ([3]; MDA-MB-468, from 6 h, 10 μM): down-regulation
STAT5 and pSTAT5 (Y694) ([3]; MDA-MB-468, from 12 h, 5 μM): decreased level
STAT3 and pSTAT3 ([3]; MDA-MB-468, starting at 3 h): down-regulation
JAK1 or pJAK1 (Y1022) ([4]; MDA-MB-231): no changes
Mcl-1 ([4]; MDA-MB-231): decrease starting from 6 h
STAT1 and active STAT1 at Y701 or S727 ([4]; MDA-MB-231): no significant changes
STAT2, STAT4 and STAT6 ([4]; MDA-MB-231): minimal changes
cleaved caspase 3 ([4]; MDA-MB-231): induced at 12 h
pSTAT3 at S727 residue ([4]; MDA-MB-231): continuous inhibition to 24 h
STAT5 ([4]; MDA-MB-231, 5 and 10 μM): transient decrease at 6 h
pSTAT5 ([4]; MDA-MB-231, 12 and 24 h, 5 and 10 μM): moderate decrease
pSTAT3 at Y705 residue ([4]; MDA-MB-231, 6 h, recovered at 24 h): significantly decreased
Bcl-xl protein and cyclin D1 ([4]; MDA-MB-231, 24 h): not altered
JAK2 and pJAK2 (Y1007 & Y1008) ([4]; MDA-MB-231, from 6 h, 5 μM and 10 μM): apparent down-regulation
apoptosis at 1 μM (MDA-MB-231 cells): 8%
apoptosis at 10 μM (MDA-MB-231 cells): 23%
colony formation [5]: significant suppression of colony formation
IL-6 induced nuclear translocation of pSTAT3 [6]: blocked
pSTAT3 (Y705) level in xenograft tumors, IHC ([7]; 25 mg/kg oral): significant effect on reducing pSTAT3 level
STAT3 and pSTAT3 (Y705 and S727) in tumor lysates, Western blot ([7]; oral gavage 14 days): decreased
STAT3 and pSTAT3 levels after forced expression of STAT3 [8]: significantly decreased
reduction in tumor growth, 25 mg/kg [9]: approximately 80%

O=[N+]([O-])c1ccc2c(c1)S(=O)(=O)C=C2 [Stattic]
IC50 (STAT3): 5100 nM
